The source of these data is patent US20070107074A1, “Porcine Nuclear Transfer” (Garelag Pty Ltd., priority 1998, published 2007).

Assay [1] deals with porcine blastomere nuclei. Briefly: Metaphase arrest induced in porcine blastomere nuclei following treatment with nocodazole. The assay is classed as cell-based. An excerpt:
Preferably, karyoplasts may be synchronized at the G1 state using a DNA synthesis inhibitor and/or use of a microtubule inhibitor which, on following removal of the inhibitor(s), results in synchronization of the karyoplast at the G1 state, or by means other than DNA inhibition, excluding serum starvation, for example cdk kinase inhibitors such as Butyrolactone I (Motlik et al (1998) Theriogeneology 49: 461-469). Examples of DNA synthesis inhibitors include: aphidicolin, hydroxyurea, cytosine arabinoside, 5-fluorouracil, n-ethylmalemide and etoposide. Any microtubule inhibitor may be used in this invention including nocodazole, colchecine or colcemid. Alternatively, a microtubule stabilizer such as, for example, taxol may be used. Karyoplasts may, for example, be synchronized at G1 by the use of a microtubule inhibitor such as nocodazole (to give a population of nuclei at the metaphase) followed by treatment with a DNA synthesis inhibitor such as aphidicolin in which the nuclei progress to an arrest at the G1 state. […] Karyoplasts may be synchronized in the Go state by nutrient deprivation, such as incubation in a low serum containing medium, as is known in the art, or by chemical treatment. Donor karyoplasts (such as cells) may be incubated in a standard culture medium with a DNA synthesis inhibitor and/or microtubule inhibitor for a time sufficient to synchronize the cells at the G1 state. This can be readily observed by microscopic observations. DNA synthesis inhibitors and/or microtubule inhibitors may be used, for example, in an amount of from about 0.01 μg/ml to about 50 μg/ml, such as about 1-5 μg/ml culture medium. Microtubule inhibitors fix the cells at the M phase. After removal of microtubule inhibitor from the cell media, which can conveniently be done by washing the cells, cells pass to the G1 phase after about 30 minutes to 6 hours in a uniform manner such that a plurality of cells in the G1 phase can be conveniently prepared. A DNA synthesis inhibitor synchronises cells at the G1 phase. Removal of a DNA synthesis inhibitor from cell media allows the cell cycle to proceed. Similarly donor karyoplasts may be synchronized in the G0 state as described above.

For a further assay, the system named is porcine morulae. Briefly: In vitro development of porcine morulae following NZ treatment. The assay is classed as cell-based. The following applies: 15 h. As for the experimental part:
In vitro culture of oocytes, embryos and nuclear transfer embryos was conducted in 25 μl droplets of Whitten's medium (Whitten W K, 1971, in G Raspe, ed Advances in the Biosciences, Pergamon Press: Oxford, pp 129-141) supplemented with 15 mg/ml bovine serum albumin (BSA) under paraffin oil in a plastic petrie dish under an atmosphere of 5% CO2, 5% O2 and 90% N2 in humidified air at […].

On to `COC(=O)Nc1nc2ccc(C(=O)c3cccs3)cc2[nH]1` [NZ, nocodazole], for which the “Blastomeres at M” value in assay [1] (4 h exposure, NZ 1 μg/ml) is “(24%)”; in assay [1] (4 h exposure, NZ 1 μg/ml, number at M/total), 14/58; in assay [1] (7 h exposure, NZ 1 μg/ml) it was “(41%)”; in assay [1] (7 h exposure, NZ 1 μg/ml, number at M/total) it was 54/133; in assay [1] (15 h exposure, NZ 0.5 μg/ml) it was “(76%)”; in assay [1] (15 h exposure, NZ 0.5 μg/ml, number at M/total), 101/133. For the same compound, the “Blastomeres at M” value in assay [1] (15 h exposure, NZ 1 μg/ml) is listed as “(96%)”; in assay [1] (15 h exposure, NZ 1 μg/ml, number at M/total) it was 257/267. For the same compound, the Development to blastocyst in the assay on porcine morulae (NZ 0.5 μg/ml, 3 repeats) was 70%; in the assay with porcine morulae (NZ 0.5 μg/ml, 3 repeats, number of blastocysts/total), 14/20; in the assay on porcine morulae (NZ 1 μg/ml, 4 repeats), 57%; with porcine morulae (NZ 1 μg/ml, 4 repeats, number of blastocysts/total) it was 17/30.
